# System: livers of Ross 308 chicks
# Assay: Chick liver SOD and GSSG analysis, OXISELECT kits (Example 5)
# Format: in vivo, chicken
# Details: breeder diet
# Experimental: Group egg weights were recorded at E0. At E7 and E18, all eggs were candled and empty eggs or eggs containing dead embryos were removed (early dead E0-E7, mid dead E8-E18). At E18 eggs were transferred to the hatching baskets after candling. At hatch (E21) the number of dead chickens, late dead embryos (E19-E21) and pipped eggs were recorded. The number of hatched chickens was recorded per replicate, as well as average chick weight. Hatchability was calculated as percentage of total eggs set. Sex was determined by feather sexing, female chickens were euthanized by CO2 and disposed according to local regulations. Per experimental unit, five male chickens were selected for the grow-out period and allocated to broiler grower pens. Only chickens with an average body weight, completely dry, showing active movement and with a good navel score were selected. After this selection one male chicken per experimental unit was selected for dissection. Sample chickens were individually weighed and killed by cervical dislocation to measure remaining yolk-sac weights, yolk-free body mass (“YFBM”), liver weight, chick length, and shank length of both shanks. The livers were immediately placed on dry ice and after dissection stored at −20° C. for further analysis (“SOD and GSSG”). Relative asymmetry was calculated according to the following formula: […]
# Furthermore, no treatment effects were found on several chick quality parameters (YFBM, chick length, and relative asymmetry). OXISELECT Superoxide Dismutase Activity Assay (“SOD”) and OXISELECT Total Glutathione (GSSG/GSH) Assay (“GSSG”) kits, available commercially from Cell Biolabs, Inc., San Diego, Calif., USA, were used to analyze chick livers.
compound,measurement,setting,value
"Cc1c(C)c2c(c(C)c1O)CCC(C)(CCCC(C)CCCC(C)CCCC(C)C)O2 (racemic) [Vitamin E, DL-α-tocopherol]",GSSG,vitamin E equivalence 80 ppm,4.27 µM
same,SOD units,vitamin E equivalence 80 ppm,0.776 units
same,GSSG,vitamin E equivalence 160 ppm,4.48 µM
same,SOD units,vitamin E equivalence 160 ppm,0.777 units
